Measured values reported in ChEMBL document CHEMBL1149646, “2D Quantitative structure-activity relationship studies on a series of cholesteryl ester transfer protein inhibitors” (Bioorg Med Chem, 2007).

Target: T1, Cholesteryl ester transfer protein (Homo sapiens, UniProt P11597)
T1 sequence (P11597 whole entry): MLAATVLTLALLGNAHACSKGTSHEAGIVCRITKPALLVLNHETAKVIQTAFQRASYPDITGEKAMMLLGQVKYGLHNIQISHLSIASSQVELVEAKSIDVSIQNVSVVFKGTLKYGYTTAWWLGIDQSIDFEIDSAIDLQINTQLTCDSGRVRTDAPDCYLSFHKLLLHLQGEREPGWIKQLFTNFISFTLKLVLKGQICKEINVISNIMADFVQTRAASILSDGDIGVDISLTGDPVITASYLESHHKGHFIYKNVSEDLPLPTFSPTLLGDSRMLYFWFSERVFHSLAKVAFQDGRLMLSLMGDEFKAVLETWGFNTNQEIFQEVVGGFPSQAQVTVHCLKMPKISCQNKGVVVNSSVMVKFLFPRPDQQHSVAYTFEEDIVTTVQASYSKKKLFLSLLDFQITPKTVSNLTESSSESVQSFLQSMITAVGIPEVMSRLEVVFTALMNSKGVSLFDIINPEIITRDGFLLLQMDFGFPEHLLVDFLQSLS
Experiment: Inhibition of CETP

Row | IC50 [µM] | SMILES
1 | 0.08 | OC(CN(Cc1cccc(OC(F)(F)C(F)F)c1)c1cccc(Oc2ccc(F)c(F)c2)c1)C(F)(F)F (centres undefined)
2 | 0.2 | CCCCc1ccc(Oc2cccc(N(Cc3cccc(OC(F)(F)C(F)F)c3)CC(O)C(F)(F)F)c2)cc1 (centres undefined)
3 | 0.03 | OC(CN(Cc1cccc(OC(F)(F)C(F)F)c1)c1cccc(Oc2cccc(CC(F)(F)F)c2)c1)C(F)(F)F (centres undefined)
4 | 0.1 | CC(C)(C)c1cccc(Oc2cccc(N(Cc3cccc(OC(F)(F)C(F)F)c3)CC(O)C(F)(F)F)c2)c1 (centres undefined)

The next lines start with the molecule.

Row | SMILES | IC50 [µM]
5 | Cc1cccc(-c2cccc(CN(CC(O)C(F)(F)F)c3cccc(Oc4ccccc4)c3)c2)n1 (centres undefined) | 15
6 | CCCCC(O)CN(Cc1cccc(OC(F)(F)F)c1)c1cccc(Oc2ccccc2)c1 (centres undefined) | 3.6
7 | OC(CN(Cc1cccc(OC(F)(F)C(F)F)c1)c1cccc(-c2ccncc2)c1)C(F)(F)F (centres undefined) | 6.24
8 | OC(CN(Cc1cccc2c1OC(F)(F)C(F)(F)O2)c1cccc(Oc2ccccc2)c1)C(F)(F)F (centres undefined) | 12
9 | OC(CN(Cc1cccc(-c2cccc(C(F)(F)F)n2)c1)c1cccc(Oc2ccccc2)c1)C(F)(F)F (centres undefined) | 4.08
10 | Cc1cc(C)cc(Oc2cccc(CN(CC(O)C(F)(F)F)c3cccc(Oc4ccccc4)c3)c2)c1 (centres undefined) | 0.07
11 | OC(CN(Cc1cccc(OC(F)(F)C(F)F)c1)c1cccc(OCc2ccccc2OC(F)(F)F)c1)C(F)(F)F (centres undefined) | 0.06
12 | OC(CN(Cc1cccc(OC(F)(F)F)c1)c1cccc(Oc2ccccc2)c1)c1ccccc1 (centres undefined) | 50
13 | OC(CN(Cc1cccc(OC(F)(F)C(F)F)c1)c1cccc(OCc2ccccc2CC(F)(F)F)c1)C(F)(F)F (centres undefined) | 0.09
14 | CC(C)(O)c1cccc(N(Cc2cccc(OC(F)(F)C(F)F)c2)CC(O)C(F)(F)F)c1 (centres undefined) | 7.8
